Data reported in PubChem BioAssay AID1918933 (Molecular Pharmacology Branch, DTP, NCI, 2023).

Test system: 186277-243-T-J2-PDC complex spheroid viability
Assay: Anticancer human tumor 186277-243-T-J2-PDC patient-derived colon adenocarcinoma cell line growth inhibition
Conditions: for IC50: curve of first compound; for viability, T/C: stronger effect = lower value
Summary of the method: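 Complex spheroids of tumor cells with HUVEC and human MSCs, exposed to iadademstat combined with other agents. Each agent tested in half-log steps from near clinical Cmax (else 10 microM top), DMSO ≤0.25%.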

[1] = second compound 0.1 µM, first compound 0.00316 µM
[2] = second compound 0.1 µM, first compound 0.01 µM
[3] = second compound 0.1 µM, first compound 0.0316 µM
[4] = second compound 0.1 µM, first compound 0.1 µM
[5] = second compound 0.316 µM, first compound 0.00316 µM
[6] = second compound 0.316 µM, first compound 0.01 µM
[7] = second compound 0.316 µM, first compound 0.0316 µM
[8] = second compound 0.316 µM, first compound 0.1 µM
[9] = second compound 1 µM, first compound 0.00316 µM
[10] = second compound 1 µM, first compound 0.01 µM
[11] = second compound 1 µM, first compound 0.0316 µM
[12] = second compound 1 µM, first compound 0.1 µM
[13] = second compound 3.16 µM, first compound 0.00316 µM
[14] = second compound 3.16 µM, first compound 0.01 µM
[15] = second compound 3.16 µM, first compound 0.0316 µM
[16] = second compound 3.16 µM, first compound 0.1 µM
[17] = second compound 10 µM, first compound 0.00316 µM
[18] = second compound 10 µM, first compound 0.01 µM
[19] = second compound 10 µM, first compound 0.0316 µM
[20] = second compound 10 µM, first compound 0.1 µM
[21] = second compound 0.1 µM, first compound 0.00949 µM
[22] = second compound 0.1 µM, first compound 0.03 µM
[23] = second compound 0.1 µM, first compound 0.0949 µM
[24] = second compound 0.1 µM, first compound 0.3 µM
[25] = second compound 0.1 µM, first compound 0.949 µM
[26] = second compound 0.1 µM, first compound 3 µM
[27] = second compound 0.316 µM, first compound 0.00949 µM
[28] = second compound 0.316 µM, first compound 0.03 µM
[29] = second compound 0.316 µM, first compound 0.0949 µM
[30] = second compound 0.316 µM, first compound 0.3 µM
[31] = second compound 0.316 µM, first compound 0.949 µM
[32] = second compound 0.316 µM, first compound 3 µM
[33] = second compound 1 µM, first compound 0.00949 µM
[34] = second compound 1 µM, first compound 0.03 µM
[35] = second compound 1 µM, first compound 0.0949 µM
[36] = second compound 1 µM, first compound 0.3 µM
[37] = second compound 1 µM, first compound 0.949 µM
[38] = second compound 1 µM, first compound 3 µM
[39] = second compound 3.16 µM, first compound 0.00949 µM
[40] = second compound 3.16 µM, first compound 0.03 µM
[41] = second compound 3.16 µM, first compound 0.0949 µM
[42] = second compound 3.16 µM, first compound 0.3 µM
[43] = second compound 3.16 µM, first compound 0.949 µM
[44] = second compound 3.16 µM, first compound 3 µM
[45] = second compound 10 µM, first compound 0.00949 µM
[46] = second compound 10 µM, first compound 0.03 µM
[47] = second compound 10 µM, first compound 0.0949 µM
[48] = second compound 10 µM, first compound 0.3 µM
[49] = second compound 10 µM, first compound 0.949 µM
[50] = second compound 10 µM, first compound 3 µM
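Also: 7 day exposure to compounds.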
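For viability, T/C in this document: 100% = DMSO vehicle control viability.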

COc1cc(Nc2ncc3c(n2)-c2ccc(Cl)cc2C(c2c(F)cccc2OC)=NC3)ccc1C(=O)O + NC1CCC(NC2CC2c2ccccc2)CC1
IC50 (second compound 0.1 µM): 13 nM
IC50 (second compound 0.316 µM): 11.2 nM
IC50 (second compound 1 µM): 10.4 nM
IC50 (second compound 3.16 µM): 10.6 nM
IC50 (second compound 10 µM): 13.7 nM
viability, T/C [1]: 131%
viability, T/C [2]: 59.2%
viability, T/C [3]: 19.2%
viability, T/C [4]: 0.36%
viability, T/C (second compound 0.1 µM, first compound 0.316 µM): 0.06%
viability, T/C (second compound 0.1 µM, first compound 1 µM): 0.02%
viability, T/C [5]: 119%
viability, T/C [6]: 54.1%
viability, T/C [7]: 11.7%
viability, T/C [8]: 0.19%
viability, T/C (second compound 0.316 µM, first compound 0.316 µM): 0.05%
viability, T/C (second compound 0.316 µM, first compound 1 µM): 0.01%
viability, T/C [9]: 109%
viability, T/C [10]: 51.1%
viability, T/C [11]: 11.3%
viability, T/C [12]: 0.14%
viability, T/C (second compound 1 µM, first compound 0.316 µM): 0.02%
viability, T/C (second compound 1 µM, first compound 1 µM): 0.01%
viability, T/C [13]: 120%
viability, T/C [14]: 51.8%
viability, T/C [15]: 13.2%
viability, T/C [16]: 0.12%
viability, T/C (second compound 3.16 µM, first compound 0.316 µM): 0.04%
viability, T/C (second compound 3.16 µM, first compound 1 µM): 0.01%
viability, T/C [17]: 128%
viability, T/C [18]: 58.6%
viability, T/C [19]: 27.7%
viability, T/C [20]: 0.81%
viability, T/C (second compound 10 µM, first compound 0.316 µM): 0.06%
viability, T/C (second compound 10 µM, first compound 1 µM): 0.02%

Cn1ncnc1C1c2n[nH]c(=O)c3cc(F)cc(c23)NC1c1ccc(F)cc1 (stereo not given) + NC1CCC(NC2CC2c2ccccc2)CC1
IC50 (second compound 0.1 µM): > 100 nM
IC50 (second compound 0.316 µM): > 100 nM
IC50 (second compound 1 µM): > 100 nM
IC50 (second compound 3.16 µM): > 100 nM
IC50 (second compound 10 µM): > 100 nM
viability, T/C (second compound 0.1 µM, first compound 0.000316 µM): 109%
viability, T/C (second compound 0.1 µM, first compound 0.001 µM): 105%
viability, T/C [1]: 111%
viability, T/C [2]: 107%
viability, T/C [3]: 109%
viability, T/C [4]: 104%
viability, T/C (second compound 0.316 µM, first compound 0.000316 µM): 113%
viability, T/C (second compound 0.316 µM, first compound 0.001 µM): 107%
viability, T/C [5]: 109%
viability, T/C [6]: 108%
viability, T/C [7]: 103%
viability, T/C [8]: 96.8%
viability, T/C (second compound 1 µM, first compound 0.000316 µM): 111%
viability, T/C (second compound 1 µM, first compound 0.001 µM): 107%
viability, T/C [9]: 110%
viability, T/C [10]: 107%
viability, T/C [11]: 99.6%
viability, T/C [12]: 97.8%
viability, T/C (second compound 3.16 µM, first compound 0.000316 µM): 109%
viability, T/C (second compound 3.16 µM, first compound 0.001 µM): 99%
viability, T/C [13]: 109%
viability, T/C [14]: 103%
viability, T/C [15]: 99.3%
viability, T/C [16]: 104%
viability, T/C (second compound 10 µM, first compound 0.000316 µM): 107%
viability, T/C (second compound 10 µM, first compound 0.001 µM): 113%
viability, T/C [17]: 102%
viability, T/C [18]: 104%
viability, T/C [19]: 96%
viability, T/C [20]: 108%

NS(=O)(=O)OCC1CC(n2ccc3c(NC4CCc5ccccc54)ncnc32)CC1O (stereo not given) + NC1CCC(NC2CC2c2ccccc2)CC1
IC50 (second compound 0.1 µM): 521 nM
IC50 (second compound 0.316 µM): 474 nM
IC50 (second compound 1 µM): 518 nM
IC50 (second compound 3.16 µM): 686 nM
IC50 (second compound 10 µM): 907 nM
viability, T/C [21]: 113%
viability, T/C [22]: 96.2%
viability, T/C [23]: 85.8%
viability, T/C [24]: 65.8%
viability, T/C [25]: 33.2%
viability, T/C [26]: 9.95%
viability, T/C [27]: 126%
viability, T/C [28]: 112%
viability, T/C [29]: 97.3%
viability, T/C [30]: 63%
viability, T/C [31]: 29.6%
viability, T/C [32]: 12.1%
viability, T/C [33]: 121%
viability, T/C [34]: 103%
viability, T/C [35]: 103%
viability, T/C [36]: 58.1%
viability, T/C [37]: 38.1%
viability, T/C [38]: 15.6%
viability, T/C [39]: 113%
viability, T/C [40]: 113%
viability, T/C [41]: 97.3%
viability, T/C [42]: 71.2%
viability, T/C [43]: 42.5%
viability, T/C [44]: 14%
viability, T/C [45]: 112%
viability, T/C [46]: 102%
viability, T/C [47]: 92.8%
viability, T/C [48]: 73%
viability, T/C [49]: 49.8%
viability, T/C [50]: 15.1%

O=C(C=Cc1cccc(S(=O)(=O)Nc2ccccc2)c1)NO + NC1CCC(NC2CC2c2ccccc2)CC1
IC50 (second compound 0.1 µM): 289 nM
IC50 (second compound 0.316 µM): 290 nM
IC50 (second compound 1 µM): 294 nM
IC50 (second compound 3.16 µM): 305 nM
IC50 (second compound 10 µM): 285 nM
viability, T/C [21]: 109%
viability, T/C [22]: 114%
viability, T/C [23]: 121%
viability, T/C [24]: 47.7%
viability, T/C [25]: 20.5%
viability, T/C [26]: 5.16%
viability, T/C [27]: 116%
viability, T/C [28]: 110%
viability, T/C [29]: 109%
viability, T/C [30]: 47%
viability, T/C [31]: 15.7%
viability, T/C [32]: 2.43%
viability, T/C [33]: 113%
viability, T/C [34]: 105%
viability, T/C [35]: 104%
viability, T/C [36]: 47.1%
viability, T/C [37]: 16.6%
viability, T/C [38]: 2.3%
viability, T/C [39]: 99.7%
viability, T/C [40]: 92%
viability, T/C [41]: 113%
viability, T/C [42]: 50.6%
viability, T/C [43]: 16%
viability, T/C [44]: 1.48%
viability, T/C [45]: 104%
viability, T/C [46]: 102%
viability, T/C [47]: 113%
viability, T/C [48]: 47.3%
viability, T/C [49]: 15%
viability, T/C [50]: 1.31%
